Values of other authors, collected in patent US10548859B2, “Methods for storing Cysteamine formulations and related methods of treatment” (Horizon Orphan LLC, priority 2015, dated 2020).

Conditions: children with cystinosis

COc1ccc2c(c1)c(CC(=O)O)c(C)n2C(=O)c1ccc(Cl)cc1 [indomethacin]
reduction of urine volume and liquid consumption: about 30%
